Assay results taken from US20040122062A1, “Use of growth hormone secretagogues for treatment of physical performance decline” (Pfizer Inc, priority 2000, published 2004).
Where a SMILES comes first, the peptide text is derived from it. [ ]: non-standard residue; d: D form. d2Nal = N[C@H](Cc1ccc2ccccc2c1)C(=O)O; Aib = CC(C)(N)C(=O)O

Tests used:
[1] = adult female rats; cited from earlier work
[2] = 6-Minute Walk Test in a clinical study; assay type: in vivo, human; details: all dose groups, week 6 and week 12
Method: One physical performance endpoint in a clinical study was to determine whether the test compound, 2-amino-N-[2-(3a-(R)-benzyl-2-methyl-3-oxo-2,3,3a,4,6,7-hexahydro-pyrazolo[4,3-c]pyridin-5-yl)-1-(R)-benzyloxymethyl-2-oxo-ethyl]-isobutyramide, L-tartrate, increased the six-minute walk distance in subjects with mild-to-moderate congestive heart failure. There were four dose groups, 3 mg po tid; 6 mg po tid; 10 mg po q am, and placebo.
The six-minute walk study was performed at baseline, week 6, and week 12. The purpose of this test was to determine how many feet an individual can walk within six-minutes.

[3] = canines during remobilization; cited from earlier work
[4] = obese young males; cited from earlier work

GHRP-6
bone mass [1]: have the capacity to increase bone mass

CN1N=C2CCN(C(=O)[C@@H](COCc3ccccc3)NC(=O)C(C)(C)N)C[C@@]2(Cc2ccccc2)C1=O.O=C(O)C(O)C(O)C(=O)O [2-amino-N-[2-(3a-(R)-benzyl-2-methyl-3-oxo-2,3,3a,4,6,7-hexahydro-pyrazolo[4,3-c]pyridin-5-yl)-1-(R)-benzyloxymethyl-2-oxo-ethyl]-isobutyramide, L-tartrate]
six-minute walk distance, change from baseline [2]: increased in all dose groups at both 6 and 12 weeks

CC(C)(N)C(=O)N[C@@H](Cc1c[nH]cn1)C(=O)N[C@H](Cc1ccc2ccccc2c1)C(=O)N[C@H](Cc1ccccc1)C(=O)N[C@@H](CCCCN)C(N)=O [ipamorelin] (H-[Aib]H[d2Nal][dF]K-NH2)
bone mass [1]: have the capacity to increase bone mass

CC(C)(N)C(=O)N[C@H](COCc1ccccc1)C(=O)N1CCC2(CC1)CN(S(C)(=O)=O)c1ccccc12 [MK-0677]
levels of serum insulin-like growth factor-I [3]: elevated | size and strength of the quadriceps muscle [3]: increased | markers of bone formation and bone resorption [4]: increases
